Data on four molecules can be found in US20150118165A1, “USE OF CYCLOHEXANOL ETHERS HAVING ANTIMICROBIAL PROPERTIES” (Merck Patent GmbH, priority 2012, published 2015).

Data set [1] relates to Candida albicans. Briefly: Antimicrobial action, microbe count (procedure as Example 1). Type of data set: cell-based. Particulars: for Δlog: t24 h vs t0. The procedure: (§1) For sample preparation, the substance I-2 being investigated is homogeneously dispersed in an amount of 1.0% in a water/ethanol mixture (12% of ethanol) (=sample). A suspension of Staphylococcus epidermidis (ATCC 12228) having an optical density of 1.0 in CASO broth (Merck 1.05459) is diluted 1:10000 with CASO broth. 500 μl of sample are added to 500 μl of microorganism suspension, and the mixture is incubated at 35° C. for 24 h or 48 h. After the incubation, the test batches are diluted to −6 in 10 unit steps, and 0.1 ml of each is plated-out on CASO agar (Merck 1.05458) and incubated at 35° C. for 24 h.
(§2) In order to determine the initial microbe count, 0.1 ml of the bacteria suspension used are plated-out on CASO agar (Merck 1.05458) and incubated at 35° C. for 24 h.
(§3) The colonies are subsequently counted, and the microbe count per ml is determined compared with the negative control (12% of ethanol in water).
(§4) Procedure in Accordance with Example 1
(§5) The concentrations indicated are the final use concentrations. In order to prepare the stock solution, double the final concentration are prepared in the solvent indicated. This is subsequently diluted 1:2 with the corresponding microbe suspension. In the case of Aspergillus brasiliensis, the microbe count determination is exceptionally carried out after 48 h, in the case of Malassezia furfur after 72 h.

Data set [2] has as its system Corynebacterium xerosis. Described as above. Format: cell-based. The note with it: 0.5% in H2O. Here is the method: as §1, §2, §3, §4, §5
Data set [3] has as its system Propionibacterium acnes. The description is as above. Format: cell-based. Particulars: for Δlog: t24 h vs t0. Here is the method: as §1, §2, §3, §4, §5
Data set [4] concerns Salmonella enterica. The data set is described as above. Format: cell-based. Particulars: for Δlog: t24 h vs t0. Here is the method:
as §1, §2, §3, §4, §5

Data set [5] relates to Serratia marcescens. The description is as above. Format: cell-based. The note with it: for Δlog: t24 h vs t0. The procedure:
as §1, §2, §3, §4, §5

Data set [6] concerns Staphylococcus aureus. The description is as above. Format: cell-based. The note with it: 1.0% in H2O(12% of ethanol). Here is the method: as §1, §2, §3, §4, §5
The test system of data set [7] is Echerichia coli. The data set is described as above. Type of data set: cell-based, Escherichia coli. Particulars: for Δlog: t24 h vs t0. Here is the method: as §1, §2, §3, §4, §5
Data set [8] has as its system Aspergillus brasiliensis. Nature of the data set: Antimicrobial action, microbe count (procedure as Example 1, count after 48 h). Format: cell-based. The note with it: for Δlog: count after 48 h vs t0; for Microbe count t24 h: count after 48 h. Here is the method:
as §1, §2, §3, §4, §5

Data set [9] has as its system Malassezia furfur. Briefly: Antimicrobial action, microbe count (procedure as Example 1, count after 72 h). Format: cell-based. Particulars: 1.0% in H2O. The procedure:
as §1, §2, §3, §4, §5

A short description of data set [10]: Measurement of density and viscosities (Ubbelohde viscometer) to estimate spreadability. Format: physicochemical. Here is the method:
After measurement of the densities and kinematic viscosities using an Ubbelohde viscometer, the following dynamic viscosities arise:
Kinematic viscosity of I-1: 15.2 mm^2/s Density of I-1: 0.9897 g/cm^3; 25° C.
Dynamic viscosity of I-1=kinematic viscosity of I-1×density I-1=15.0 [mPas]
Since spreadabilities and viscosities of cosmetic emollients correlate well, good spreadabilities can be concluded from the viscosities determined.

Data set [11] deals with Staphylococcus epidermidis (ATCC 12228). Briefly: Antimicrobial action, microbe count after incubation in CASO broth. Format: cell-based. The note with it: sample 1.0% in water/ethanol (12% of ethanol), 500 µl sample + 500 µl suspension; 35° C., 24 h or 48 h; initial count 5.8 × 10^4. The procedure:
as §1, §2, §3

Setting [12] is: 0.25% in H2O, count t0 1.3 × 10^6.
[13] abbreviates: 0.25% in H2O, count t0 3.2 × 10^5.

Regarding `OCCOC1CCCCC1` [Substance I-1], the “Microbe count t24 h” value in data set [1] (setting [12]) is on record as 4.3 × 10^6; in data set [1] (1.0% in H2O(12% of ethanol), count t0 6.0 × 10^3), 0; in data set [2] (count t0 1.0 × 10^6), 2.0 × 10^6; in data set [3] (1.0% in H2O, count t0 7.8 × 10^5), 7.0 × 10^5; in data set [4] (0.5% in H2O, count t0 1.0 × 10^6), 9.0 × 10^3; in [4] (0.8% in H2O(12% of ethanol), count t0 1.3 × 10^4), 0. The “Microbe count t24 h” value was 1.7 × 10^4 in [5] (0.5% in H2O, count t0 2.9 × 10^5); 0 in data set [5] (1.0% in H2O, count t0 2.5 × 10^5); 2.5 × 10^2 in [6] (count t0 7.2 × 10^4); 8.0 × 10^8 in [7] (setting [13]); 0 in data set [7] (0.8% in H2O(12% of ethanol), count t0 6.3 × 10^4); 1.0 × 10^2 in data set [8] (1.0% in H2O(12% of ethanol), count t0 8.0 × 10^2). For the same molecule, the “Microbe count t24 h” value in [9] (count t0 4.0 × 10^2, count after 72 h) is recorded as 0. Also, the Δlog entry in [1] (0.25% in H2O) is on record as “+0.53”; in data set [1] (1.0% in H2O(12% of ethanol)), −3.78; in data set [2] (t24 h vs t0) it was “+0.30”; in data set [3] (1.0% in H2O) it was −0.05; in data set [4] (0.5% in H2O) it was −2.05; in data set [4] (0.8% in H2O(12% of ethanol)) it was −4.11. Further, the Δlog in data set [5] (0.5% in H2O) was −1.23; in [5] (1.0% in H2O) it was −5.40; in data set [6] (t24 h vs t0) it was −2.46; in [7] (0.25% in H2O), “+3.40”; in [7] (0.8% in H2O(12% of ethanol)), −4.80; in [8] (1.0% in H2O(12% of ethanol)), −0.90. For the same molecule, the Δlog in data set [9] (count after 72 h vs t0) is −2.60. Further, the Density in [10] (25° C.) is 0.9897 g/mL. The Kinematic viscosity in data set [10] (Ubbelohde viscometer) was 15.2 mm^2/s. Further, in [10] (kinematic viscosity × density), the Dynamic viscosity is recorded as 15.0 mPas.
`COC1CCC(O)CC1` (stereo not shown) [Substance I-2]: the Final microbe count in [11] is listed as 4.0 × 10^4 CFU/ml.
With `OCCOC1CCC(OCCO)CC1` (stereo not shown) [Substance I-3, 2-[4-(2-hydroxyethoxy)cyclohexyloxy]ethanol], the “Microbe count t24 h” value in data set [3] (0.5% in H2O, count t0 3.4 × 10^5) was 4.0 × 10^7; in [8] (0.5% in H2O, count t0 2.8 × 10^4), 1.6 × 10^4; in data set [8] (1.0% in H2O, count t0 2.8 × 10^4), 1.4 × 10^3. The Δlog result in [3] (0.5% in H2O) is “+2.07”; in data set [8] (0.5% in H2O, t0 2.8 × 10^4), −0.24; in data set [8] (1.0% in H2O) it was −1.30.
As for `CC(O)COC1CCCCC1` (stereo not shown) [Substance I-9], the results for the “Microbe count t24 h” value in data set [1] (setting [12]) and in [7] (setting [13]) were 1.4 × 10^6 and 4.30 × 10^8, respectively. The Δlog result in data set [1] (0.25% in H2O) is “+0.04”; in data set [7] (0.25% in H2O), “+3.13”.
